# Tests used:
# HPK1 p-SLP-76 = HPK1 p-SLP-76 inhibition assay in human PBMC (HTRF); assay type: cell-based; conditions: 6 h compound, anti-CD3 stimulation 20 min
# Protocol: Human PBMC were purchased from OriCells (FPB004F-C). Before compound treatment, PBMC were starved in PRMI-1640 medium supplemented with 0.5% FBS overnight. The cell density was adjusted to 1*10^7 cells/mL in assay medium (RPMI-1640 no phenol red with 0.5% FBS) and 16 μL cell suspension was transferred per well to a 384-well plate (Corning #3765). 6× solution of test compound was prepared in assay medium and 4 μL was added per well to the 384-well plate. The plate was then incubated at 37° C., 5% CO2 for 6 h. PBMC in 384-well plate were stimulated with anti-CD3 (BD Biosciences #555329, final conc. is 10 ug/mL) for 20 min at 37° C., 5% CO2 by adding 4 μL 6× antibody solution per well. Phospho-SLP76 HTRF kit was purchased from Cisbio (63ADK076PEH). 8 μL 4× Lysis Buffer was added to 384-well plate after anti-CD3 stimulation. The plate was centrifuged at 1,000 rpm for 1 min, shaken at 250 rpm for 60 min and centrifuged again at 1,000 rpm for 5 min. Afterwards the cell lysates were transferred to the assay plate (Greiner #784075) with 16 μL per well. 4 μL detection antibody mix per well prepared in Detection Buffer was added to the assay plate, followed by centrifugation at 1,000 rpm for 1 min and incubation at 25° C. overnight.
# HPK1 protein [1] = target: T1, HPK1 protein (Homo sapiens, UniProt Q92918); assay: HPK1 enzyme inhibition assay (ADP-Glo); assay type: biochemical; conditions: MBP substrate, ATP, ADP-Glo readout
# T1 construct: purchased Signal Chem M23-11G-10
# T1 sequence (Q92918 1-346 limits assumed): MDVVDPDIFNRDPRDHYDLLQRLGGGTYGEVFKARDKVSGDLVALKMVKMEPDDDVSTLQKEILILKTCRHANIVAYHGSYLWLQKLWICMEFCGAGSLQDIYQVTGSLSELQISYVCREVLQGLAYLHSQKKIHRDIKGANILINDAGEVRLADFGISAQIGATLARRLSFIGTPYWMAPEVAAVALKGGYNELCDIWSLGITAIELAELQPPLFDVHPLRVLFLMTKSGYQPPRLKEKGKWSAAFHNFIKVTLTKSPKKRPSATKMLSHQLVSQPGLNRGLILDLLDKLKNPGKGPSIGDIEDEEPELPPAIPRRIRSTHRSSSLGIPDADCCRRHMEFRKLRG
# Protocol: The compound was dissolved in 100% DMSO at the concentration of 10 mM. The HPK1 protein was purchased from Signal Chem (M23-11G-10). 2.5 μL per well of 2×HPK1 protein was added to assay plate containing the test compound, centrifuged at 1500 rpm for 1 minute, and then incubated at 25° C. for 60 minutes. MBP protein was purchased from Signal Chem (M42-51N) and ATP was purchased from Promega (V9102). The two were added 2.5 μL per well mixture of 2×MBP (0.2 ug/ul) and ATP (20 μM), centrifuged at 1500 rpm for 1 minute, then incubated at 25° C. for 60 minutes. Then added 5 μL of ADP-Glo from Promega (V9102) to the assay plate and depleted the unconsumed ATP for 60 minutes. Then centrifuged at 1500 rpm for 1 minute and incubated at 25° C. for 60 minutes. Finally, 10 μL of the kinase assay reagent from Promega (V9102) was added to the assay plate to convert ADP to ATP, centrifuged at 1500 rpm for 1 minute, incubate at 25° C. for 40 minutes. After 40 minutes incubation, the […] was determined. Based on the results, the IC50 value of the compound was calculated.
# HPK1 protein [2] = target: T2, HPK1 protein (Mus musculus, UniProt P70218); assay: HPK1 protein degradation in mouse pan T cell (western blot); assay type: cell-based; conditions: 18 h incubation
# T2 construct: the CD3+ T cell population was isolated from spleenocytes of mice; endogenous in cells; host or cells: primary mouse splenic CD3+ (pan) T cells
# T2 sequence (P70218 1-827): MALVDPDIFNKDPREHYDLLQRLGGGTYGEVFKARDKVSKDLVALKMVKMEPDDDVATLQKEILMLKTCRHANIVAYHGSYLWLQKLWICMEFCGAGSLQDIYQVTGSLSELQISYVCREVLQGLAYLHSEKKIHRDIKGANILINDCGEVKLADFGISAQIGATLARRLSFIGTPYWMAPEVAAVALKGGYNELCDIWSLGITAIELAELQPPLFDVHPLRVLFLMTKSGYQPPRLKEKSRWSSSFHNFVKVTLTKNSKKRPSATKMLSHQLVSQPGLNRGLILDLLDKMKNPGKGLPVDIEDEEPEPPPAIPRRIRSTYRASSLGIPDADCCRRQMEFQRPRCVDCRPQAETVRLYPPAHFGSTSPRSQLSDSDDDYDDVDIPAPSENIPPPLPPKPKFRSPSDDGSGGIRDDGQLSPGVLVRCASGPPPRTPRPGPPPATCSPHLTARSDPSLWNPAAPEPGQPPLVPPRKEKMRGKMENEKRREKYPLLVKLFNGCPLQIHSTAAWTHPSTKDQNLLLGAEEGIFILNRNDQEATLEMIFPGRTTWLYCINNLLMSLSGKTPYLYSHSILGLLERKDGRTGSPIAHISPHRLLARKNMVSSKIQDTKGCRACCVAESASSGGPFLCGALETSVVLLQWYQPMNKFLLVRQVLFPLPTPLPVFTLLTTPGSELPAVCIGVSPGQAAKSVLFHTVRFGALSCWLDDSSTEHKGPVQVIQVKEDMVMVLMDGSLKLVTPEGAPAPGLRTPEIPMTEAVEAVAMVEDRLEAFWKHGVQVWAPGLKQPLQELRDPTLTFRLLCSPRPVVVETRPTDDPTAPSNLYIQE
# Protocol: HPK1 protein degradation in mouse pan T cell: the CD3+ T cell population was isolated from spleenocytes of mice by using Pan T cell isolation kit from Miltenyi Biotec (130-095-130) following manufacture's instruction. The isolated T cells were then incubated with a variety of concentrations of compound. After incubation for 18 h, the cells were collected and lysed. The protein concentration was determined by BCA protein assay kit from Thermo (23227). The HPK1 protein level was determined by western blots, using anti-human HPK1 polyclonal antibody from CST (4472). Proteins were loaded into each well of the pre-casting gels and subjected to electrophoretic separation by SDS-PAGE. The protein resolved by SDS-PAGE were transferred to PVDF, blocked by 5% skim milk and probed with anti-human HPK1 antibody or β-actin antibody from CST (3700S), using following standard western blotting procedure.
IC50 (HPK1 p-SLP-76) [µM],IC50 (HPK1 protein [1]) [µM],Dmax (HPK1 protein [2]) [%],SMILES
3 to 10,0.01 to 0.1,,CCc1c[nH]c2ncc(-c3cccc(N4CCN(C(=O)CCCCCCCOc5cccc6c5CN(C5CCC(=O)NC5=O)C6=O)CC4=O)c3)c(Cl)c12 (centres unmarked) [Example 1]
,0.01 to 0.1,91,CCc1c[nH]c2ncc(-c3cccc(N4CCN(CCC(=O)N5CCN(c6ccc7c(c6)C(=O)N(C6CCC(=O)NC6=O)C7=O)CC5)CC4=O)c3)c(Cl)c12 (centres unmarked) [Example 24]
,0.01 to 0.1,95,CCc1c[nH]c2ncc(-c3cccc(N4CCN(CCCN5CCN(c6ccc7c(c6)C(=O)N(C6CCC(=O)NC6=O)C7=O)CC5)CC4=O)c3)c(Cl)c12 (centres unmarked) [Example 27]
,0.01 to 0.1,80,"CCc1c[nH]c2ncc(-c3cccc(N4CCN(CC(=O)N5CCN(c6cc7c(cc6F)C(=O)N(C6CCC(=O)NC6=O)C7=O)CC5)CC4=O)c3)c(Cl)c12 (centres unmarked) [Example 29, 5-(4-(2-(4-(3-(4-chloro-3-ethyl-1H-pyrrolo[2,3-b]pyridin-5-yl)phenyl)-3-oxopiperazin-1-yl)acetyl)piperazin-1-yl)-2-(2,6-dioxopiperidin-3-yl)-6-fluoroisoindoline-1,3-dione]"
,0.01 to 0.1,60,CCc1c[nH]c2ncc(-c3cccc(N4CCN(CCOCCN5CCN(c6cc7c(cc6F)C(=O)N(C6CCC(=O)NC6=O)C7=O)CC5)CC4=O)c3)c(Cl)c12 (centres unmarked) [Example 33]
,0.1 to 1,0,"O=C1CCC(N2Cc3cc(N4CCC(OCC(=O)N5CCN(c6cccc(-c7cnc8[nH]cc(C#Cc9ccccn9)c8c7Cl)c6)C(=O)C5)CC4)ccc3C2=O)C(=O)N1 (centres unmarked) [Example 57, 3-(5-(4-(2-(4-(3-(4-chloro-3-(pyridin-2-ylethynyl)-1H-pyrrolo[2,3-b]pyridin-5-yl)phenyl)-3-oxopiperazin-1-yl)-2-oxoethoxy)piperidin-1-yl)-1-oxoisoindolin-2-yl)piperidine-2,6-dione]"
,0.01 to 0.1,60,CCc1c[nH]c2ncc(-c3cccc(N4CCN(CCCCNc5ccc6c(c5)C(=O)N(C5CCC(=O)NC5=O)C6=O)CC4=O)c3)c(Cl)c12 (centres unmarked) [Example 59]
,0.1 to 1,50,O=C1CCC(N2Cc3cc(F)c(N4CCC(CCN5CCN(c6cccc(-c7cnc8[nH]cc(C9CC9)c8c7Cl)c6)C(=O)C5)CC4)cc3C2=O)C(=O)N1 (centres unmarked) [Example 61]
,0.01 to 0.1,95,"O=C1CCC(N2Cc3cc(N4CCC(CCN5CCN(c6cccc(-c7cnc8[nH]cc(C9CC9)c8c7Cl)c6)C(=O)C5)CC4)c(F)cc3C2=O)C(=O)N1 (centres unmarked) [Example 62, 3-(5-(4-(2-(4-(3-(4-chloro-3-cyclopropyl-1H-pyrrolo[2,3-b]pyridin-5-yl)phenyl)-3-oxopiperazin-1-yl)ethyl)piperidin-1-yl)-6-fluoro-1-oxoisoindolin-2-yl)piperidine-2,6-dione]"
,0.01 to 0.1,,CCc1c[nH]c2ncc(-c3cccc(N4CCN(CC5CN(c6ccc7c(c6)C(=O)N(C6CCC(=O)NC6=O)C7=O)C5)CC4=O)c3)c(Cl)c12 (centres unmarked) [Example 89]
,0.01 to 0.1,,"CCc1c[nH]c2ncc(-c3cccc(N4CCN(Cc5ccc6c(c5)C(=O)N(C5CCC(=O)NC5=O)C6=O)CC4=O)c3)c(Cl)c12 (centres unmarked) [Example 90, 5-((4-(3-(4-chloro-3-ethyl-1H-pyrrolo[2,3-b]pyridin-5-yl)phenyl)-3-oxopiperazin-1-yl)methyl)-2-(2,6-dioxopiperidin-3-yl)isoindoline-1,3-dione]"
,0.01 to 0.1,,"O=C1CCC(N2C(=O)c3ccc(CN4CCC(OC(=O)N5CCN(c6cccc(-c7cnc8[nH]cc(C9CC9)c8c7Cl)c6)C(=O)C5)CC4)cc3C2=O)C(=O)N1 (centres unmarked) [Example 94, 1-((2-(2,6-dioxopiperidin-3-yl)-1,3-dioxoisoindolin-5-yl)methyl)piperidin-4-yl 4-(3-(4-chloro-3-cyclopropyl-1H-pyrrolo[2,3-b]pyridin-5-yl)phenyl)-3-oxopiperazine-1-carboxylate]"
,≤ 0.01,,"O=C1CCN(c2cnc3cc(C4CCN(CCCN5CCN(c6cccc(-c7cnc8[nH]cc(C9CC9)c8c7Cl)c6)C(=O)C5)CC4)ccn23)C(=O)N1 [Example 96, 1-(7-(1-(3-(4-(3-(4-chloro-3-cyclopropyl-1H-pyrrolo[2,3-b]pyridin-5-yl)phenyl)-3-oxopiperazin-1-yl)propyl)piperidin-4-yl)imidazo[1,2-a]pyridin-3-yl)dihydro pyrimidine-2,4 (1H,3H)-dione]"
,≤ 0.01,,"CCc1c[nH]c2ncc(-c3cccc(N4CCN(CCc5ccc6c(c5)C(=O)N(C5CCC(=O)NC5=O)C6=O)CC4=O)c3)c(Cl)c12 (centres unmarked) [Example 97, 5-(2-(4-(3-(4-chloro-3-ethyl-1H-pyrrolo[2,3-b]pyridin-5-yl)phenyl)-3-oxopiperazin-1-yl)ethyl)-2-(2,6-dioxopiperidin-3-yl)isoindoline-1,3-dione]"
,0.01 to 0.1,,"O=C1CCC(N2C(=O)c3ccc(CCN4CCC(OC(=O)N5CCN(c6cccc(-c7cnc8[nH]cc(C9CC9)c8c7Cl)c6)C(=O)C5)CC4)cc3C2=O)C(=O)N1 (centres unmarked) [Example 98, 1-(2-(2-(2,6-dioxopiperidin-3-yl)-1,3-dioxoisoindolin-5-yl)ethyl)piperidin-4-yl 4-(3-(4-chloro-3-cyclopropyl-1H-pyrrolo[2,3-b]pyridin-5-yl)phenyl)-3-oxopiperazine-1-carboxylate]"

SMILES,IC50 (HPK1 p-SLP-76) [µM],IC50 (HPK1 protein [1]) [µM],Dmax (HPK1 protein [2]) [%]
"O=C1CCC(c2ccc(N3CCN(CCCN4CCN(c5cccc(-c6cnc7[nH]cc(C8CC8)c7c6Cl)c5)C(=O)C4)CC3)cc2)C(=O)N1 (centres unmarked) [Example 75, 3-(4-(4-(3-(4-(3-(4-chloro-3-cyclopropyl-1H-pyrrolo[2,3-b]pyridin-5-yl)phenyl)-3-oxopiperazin-1-yl)propyl)piperazin-1-yl)phenyl)piperidine-2,6-dione]",,≤ 0.01,55

# From patent US20240368159A1, “HPK1 DEGRADERS, COMPOSITIONS COMPRISING THE HPK1 DEGRADER, AND METHODS OF USING THE SAME” (BIOFRONT LTD, priority 2021, published 2024)
